Measurements published in patent publication US12157746B2, “Tetrahydro-1H-pyrazino[2,1-a]isoindolylquinoline compounds for the treatment of autoimmune disease” (F. HOFFMANN-LA ROCHE AG, priority 2018, dated 2024).

Target: T1, human TLR8 (Homo sapiens, UniProt Q9NR97)
T1 sequence (Q9NR97 27-1041): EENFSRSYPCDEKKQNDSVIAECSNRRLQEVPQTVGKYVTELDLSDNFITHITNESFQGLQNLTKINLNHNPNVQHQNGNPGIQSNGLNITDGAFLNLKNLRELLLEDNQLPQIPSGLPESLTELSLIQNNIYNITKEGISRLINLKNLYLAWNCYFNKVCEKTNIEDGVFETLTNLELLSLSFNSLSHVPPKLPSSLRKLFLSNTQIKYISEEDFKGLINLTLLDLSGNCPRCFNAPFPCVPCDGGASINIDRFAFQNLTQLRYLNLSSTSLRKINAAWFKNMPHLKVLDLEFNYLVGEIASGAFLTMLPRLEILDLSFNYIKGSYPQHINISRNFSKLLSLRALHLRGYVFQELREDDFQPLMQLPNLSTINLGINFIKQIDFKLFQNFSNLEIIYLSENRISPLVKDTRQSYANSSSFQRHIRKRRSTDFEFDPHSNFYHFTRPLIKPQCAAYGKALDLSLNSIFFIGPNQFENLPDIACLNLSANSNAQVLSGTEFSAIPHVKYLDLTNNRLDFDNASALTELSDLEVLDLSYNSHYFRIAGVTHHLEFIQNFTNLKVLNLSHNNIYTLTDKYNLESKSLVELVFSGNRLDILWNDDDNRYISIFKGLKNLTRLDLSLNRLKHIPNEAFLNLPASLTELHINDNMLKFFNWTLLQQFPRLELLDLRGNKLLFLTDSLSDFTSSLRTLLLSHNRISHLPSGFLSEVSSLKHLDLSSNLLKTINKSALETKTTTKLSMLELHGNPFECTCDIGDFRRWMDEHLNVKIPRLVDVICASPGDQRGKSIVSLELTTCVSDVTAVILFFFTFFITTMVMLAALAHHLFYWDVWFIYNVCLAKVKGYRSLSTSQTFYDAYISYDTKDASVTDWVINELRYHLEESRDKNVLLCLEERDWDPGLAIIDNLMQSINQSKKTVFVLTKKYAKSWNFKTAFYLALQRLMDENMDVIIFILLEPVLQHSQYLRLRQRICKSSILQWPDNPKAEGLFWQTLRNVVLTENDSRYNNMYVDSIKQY
Assay: HEK293-Blue-hTLR-8 cells assay
Assay type: cell-based
Conditions: HEK293-Blue-hTLR8 cells, R848 stimulation, 20 hrs, SEAP reporter; read-out: HEK/hTLR8 IC50
Outline: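 Antagonism read out in HEK293-Blue-hTLR8 cells carrying an NF-κB/AP-1-driven SEAP reporter, stimulated with R848 (10 μL of 60 uM stock added) alongside serially diluted compound (1% DMSO), 20 h at 37° C. Supernatant SEAP measured with QUANTI-Blue after 2 h at 37° C, absorbance at 620-655 nm.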

Compound	IC50
C[C@@H]1CN(c2ccc(C#N)c3ncccc23)C[C@@H]2c3ccc(N4CCN[C@H](CO)C4)cc3CN12 [Example 12, 5-[(4R,10bS)-8-[(3S)-3-(hydroxymethyl)piperazin-1-yl]-4-methyl-3,4,6,10b-tetrahydro-1H-pyrazino[2,1-a]isoindol-2-yl]quinoline-8-carbonitrile]	< 3.2 nM
C[C@@H]1CN(c2ccc(C#N)c3ncccc23)CC2c3ccc(N4C[C@H](N)[C@@H](O)C4)cc3CN21 (relative stereo) [Example 21, 5-[(4R,10bS)-8-[trans-3-amino-4-hydroxy-pyrrolidin-1-yl]-4-methyl-3,4,6,10b-tetrahydro-1H-pyrazino[2,1-a]isoindol-2-yl]quinoline-8-carbonitrile]	< 3.2 nM
C[C@@H]1CN(c2ccc(C#N)c3ncccc23)C[C@@H]2c3ccc(N4CC5(CNCCO5)C4)cc3CN12 [Example 35, 5-[(4R,10bS)-4-methyl-8-(5-oxa-2,8-diazaspiro[3.5]nonan-2-yl)-3,4,6,10b-tetrahydro-1H-pyrazino[2,1-a]isoindol-2-yl]quinoline-8-carbonitrile]	< 3.2 nM
C[C@@H]1CN(c2ccc(C#N)c3ncccc23)C[C@@H]2c3ccc(N4CCNC[C@@H]4CO)cc3CN12 [Example 10, 5-[(4R,10bS)-8-[(2R)-2-(hydroxymethyl)piperazin-1-yl]-4-methyl-3,4,6,10b-tetrahydro-1H-pyrazino[2,1-a]isoindol-2-yl]quinoline-8-carbonitrile]	< 3.2 nM
C[C@@H]1CN(c2ccc(C#N)c3ncccc23)C[C@@H]2c3ccc(N[C@H]4CNC[C@@H]4F)cc3CN12 [Example 31, 5-[(4R,10bS)-8-[[(3S,4S)-4-fluoropyrrolidin-3-yl]amino]-4-methyl-3,4,6,10b-tetrahydro-1H-pyrazino[2,1-a]isoindol-2-yl]quinoline-8-carbonitrile]	< 3.2 nM
C[C@@H]1CN(c2ccc(C#N)c3ncccc23)C[C@@H]2c3ccc(NC4CNC4)cc3CN12 [Example 28, 5-[(4R,10S)-8-(azetidin-3-ylamino)-4-methyl-3,4,6,10b-tetrahydro-1H-pyrazino[2,1-a]isoindol-2-yl]quinoline-8-carbonitrile]	< 3.2 nM
N#Cc1ccc(N2CCN3Cc4cc(N5CCNCC5)ccc4C3C2)c2scnc12 (stereo not drawn) [Example 4, 7-(8-piperazin-1-yl-3,4,6,10b-tetrahydro-1H-pyrazino[2,1-a]isoindol-2-yl)-1,3-benzothiazole-4-carbonitrile]	< 3.2 nM
C[C@@H]1CN(c2ccc(C#N)c3ncccc23)C[C@@H]2c3ccc(N[C@@H]4CNC[C@H]4F)cc3CN12 [Example 33, 5-[(4R,10bS)-8-[[(3R,4R)-4-fluoropyrrolidin-3-yl]amino]-4-methyl-3,4,6,10b-tetrahydro-1H-pyrazino[2,1-a]isoindol-2-yl]quinoline-8-carbonitrile]	< 3.2 nM
C[C@@H]1CN(c2ccc(C#N)c3ncccc23)C[C@@H]2c3ccc(N4CC5(CCN5)C4)cc3CN12 [Example 37, 5-[(4R,10bS)-8-(1,6-diazaspiro[3.3]heptan-6-yl)-4-methyl-3,4,6,10b-tetrahydro-1H-pyrazino[2,1-a]isoindol-2-yl]quinoline-8-carbonitrile]	< 3.2 nM
C[C@@H]1CN(c2ccc(C#N)c3ncccc23)C[C@@H]2c3ccc(C4CNC4)cc3CN12 [Example 29, 5-[(4R,10bS)-8-(azetidin-3-yl)-4-methyl-3,4,6,10b-tetrahydro-1H-pyrazino[2,1-a]isoindol-2-yl]quinoline-8-carbonitrile]	< 3.2 nM
CN[C@H]1CN(c2ccc3c(c2)CN2[C@H](C)CN(c4ccc(C#N)c5ncccc45)C[C@H]32)C[C@@H]1O [Example 42, 5-[(4R,10bS)-8-[(3S,4S)-3-hydroxy-4-(methylamino)pyrrolidin-1-yl]-4-methyl-3,4,6,10b-tetrahydro-1H-pyrazino[2,1-a]isoindol-2-yl]quinoline-8-carbonitrile]	< 3.2 nM
C[C@@H]1CN(c2ccc(C#N)c3ncccc23)C[C@@H]2c3ccc(N4CC(N)C5(COC5)C4)cc3CN12 (stereo partly drawn) [Example 18, 5-[(4R,10bS)-8-(5-amino-2-oxa-7-azaspiro[3.4]octan-7-yl)-4-methyl-3,4,6,10b-tetrahydro-1H-pyrazino[2,1-a]isoindol-2-yl]quinoline-8-carbonitrile]	< 3.2 nM
COC1CN(c2ccc3c(c2)CN2C3CN(c3ccc(C#N)c4ncccc34)C[C@H]2C)CC1N (single isomer, unassigned) [Example 16B]	< 3.2 nM
C[C@@H]1CN(c2ccc(C#N)c3ncccc23)C[C@@H]2c3ccc(N4C[C@H](N)[C@@](C)(O)C4)cc3CN12 [Example 45B, 5-[(4R,10bS)-8-[(3S,4S)-4-amino-3-hydroxy-3-methyl-pyrrolidin-1-yl]-4-methyl-3,4,6,10b-tetrahydro-1H-pyrazino[2,1-a]isoindol-2-yl]quinoline-8-carbonitrile]	1.2 nM

Now from value to compound:

IC50	Compound
< 3.2 nM	C[C@@H]1CN(c2ccc(C#N)c3ncccc23)C[C@@H]2c3ccc(N4CCOCC(N)C4)cc3CN12 (stereo partly drawn) [Example 54, 5-[(4R,10bS)-8-(6-amino-1,4-oxazepan-4-yl)-4-methyl-3,4,6,10b-tetrahydro-1H-pyrazino[2,1-a]isoindol-2-yl]quinoline-8-carbonitrile]
< 3.2 nM	C[C@@H]1CN(c2ccc(C#N)c3ncccc23)C[C@@H]2c3ccc(N4CCNC[C@@H](O)C4)cc3CN12 [Example 53B, 5-[(4R,10bS)-8-[(6R)-6-hydroxy-1,4-diazepan-1-yl]-4-methyl-3,4,6,10b-tetrahydro-1H-pyrazino[2,1-a]isoindol-2-yl]quinoline-8-carbonitrile]
< 3.2 nM	C[C@@H]1CN(c2ccc(C#N)c3ncccc23)C[C@@H]2c3ccc(N4CCNC[C@@](C)(O)C4)cc3CN12 [Example 55B, 5-[(4R,10bS)-8-[(6R)-6-hydroxy-6-methyl-1,4-diazepan-1-yl]-4-methyl-3,4,6,10b-tetrahydro-1H-pyrazino[2,1-a]isoindol-2-yl]quinoline-8-carbonitrile]
< 3.2 nM	C[C@@H]1CN(c2ccc(C#N)c3ncccc23)C[C@@H]2c3ccc(N4CCOC[C@H](N)C4)cc3CN12 [Example 54A, 5-[(4R,10bS)-8-[(6R)-6-amino-1,4-oxazepan-4-yl]-4-methyl-3,4,6,10b-tetrahydro-1H-pyrazino[2,1-a]isoindol-2-yl]quinoline-8-carbonitrile]
2 nM	C[C@@H]1CN(c2ccc(C#N)n3nccc23)C[C@@H]2c3ccc(N4C[C@H](N)[C@@H](O)C4)cc3CN12 [Example 111, 4-[(4R,10bS)-8-[(3S,4S)-3-amino-4-hydroxy-pyrrolidin-1-yl]-4-methyl-3,4,6,10b-tetrahydro-1H-pyrazino[2,1-a]isoindol-2-yl]pyrazolo[1,5-a]pyridine-7-carbonitrile]
< 3.2 nM	C[C@@H]1CN(c2ccc(C#N)c3ncccc23)C[C@@H]2c3ccc(NC4CNCCOC4)cc3CN12 (stereo partly drawn) [Example 56, 5-[(4R,10bS)-4-methyl-8-(1,4-oxazepan-6-ylamino)-3,4,6,10b-tetrahydro-1H-pyrazino[2,1-a]isoindol-2-yl]quinoline-8-carbonitrile]
2.9 nM	CO[C@H]1CCN(c2ccc3c(c2)CN2[C@H](C)CN(c4ccc(C#N)n5nccc45)C[C@H]32)C[C@H]1N [Example 106, 4-[(4R,10bS)-8-[(3R,4S)-3-amino-4-methoxy-1-piperidyl]-4-methyl-3,4,6,10b-tetrahydro-1H-pyrazino[2,1-a]isoindol-2-yl]pyrazolo[1,5-a]pyridine-7-carbonitrile]
